SMILES strings stand for the structures.

For assay [1], the target named is Rhodazain (Trypanosoma brucei rhodesiense, UniProt Q95PM0). Kind of assay: Cysteine protease inhibition, progress curve method, rhodazain. Type of assay: biochemical, Trypanosoma brucei rhodesiensi. The following applies: Rhodazain Ki (nM), 10 uM Cbz-Leu-Arg-AMC, 100 mM Na acetate pH 5.5, 5 mM cysteine.
Assay [2] addresses Cruzain (Trypanosoma cruzi, UniProt P25779). The experiment in a line: Cysteine protease inhibition, progress curve method, cruzain. Type of assay: biochemical. The following applies: 4 uM Ac-Lys-Glu-Lys-Leu-Arg-AMC, 100 mM Na acetate pH 5.5, 5 mM cysteine; read-out: Cruzain Ki. Put shortly:
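Kinetic constants from AMC-release progress curves over 20–30 min at ambient temperature in 100 mM Na acetate pH 5.5, 5 mM cysteine, 2% DMSO; enzyme added last to inhibitor plus substrate. Substrates: 10 uM Cbz-Phe-Arg-AMC (Leishmania, Schistosoma), 10 uM Cbz-Leu-Arg-AMC (falcipain), 4 uM Ac-Lys-Glu-Lys-Leu-Arg-AMC (cruzain). Ki,app from linear curves; time-dependent inhibition as kobs/[I].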

Assay [3] addresses Falcipain 2 (Plasmodium falciparum, UniProt Q8I6U4). The experiment in a line: Cysteine protease inhibition, progress curve method, falcipain. Format: biochemical. The conditions noted are these: 10 uM Cbz-Leu-Arg-AMC, 100 mM Na acetate pH 5.5, 5 mM cysteine. The protocol: Standard assay conditions for the determination of kinetic constants used 10 uM fluorogenic peptide substrate, Cbz-Phe-Arg-AMC for the cysteine proteases from Leishmania spp and Schistosoma Mansoni, Cbz-Leu-Arg-AMC for the cysteine proteases from Plasmodium falciparum and Trypanosoma brucei rhodesiensi, and Ac-Lys-Glu-Lys-Leu-Arg-AMC (4 uM final substrate concentration) for the cysteine protease from Trypoanosoma cruzi, and were determined in 100 mM Na acetate at pH 5.5 containing 5 mM cysteine. Stock substrate solutions were prepared at concentrations of […] in DMSO with 10 uM (4 uM for Ac-Lys-Glu-Lys-Leu-Arg-AMC) final substrate concentration in the assays. The final DMSO concentration was 2% and the final volume was 100 uL. All assays were conducted at ambient temperature. Product progress curves were generated over 20 to 30 minutes following formation of AMC product.
Potential inhibitors were evaluated using the progress curve method. Assays were carried out in the presence of variable concentrations of test compound. Reactions were initiated by addition of enzyme to buffered solutions of inhibitor and substrate. Data analysis was conducted according to one of two procedures depending on the appearance of the progress curves in the presence of inhibitors. For those compounds whose progress curves were linear, apparent inhibition constants (Ki,app) were calculated according to equation 1 (Brandt et al., Biochemitsry, 1989, 28, 140):
v=VmA/[Ka(1+I/Ki,app)+A] (1)
Where v is the velocity of the reaction with maximal velocity Vm, A is the concentration of substrate with Michaelis constant of Ka, and I is the concentration of inhibitor.
[AMC]=vsst+(v0−vss)[1−exp (−kobst)]/kobs (2)
Where [AMC] is the concentration of product formed over time t, v0 is the initial reaction velocity and vss is the final steady state rate. Values for kobs were then analyzed as a linear function of inhibitor concentration to generate an apparent second order rate constant (kobs/inhibitor concentration or kobs/[I]) describing the time-dependent inhibition. A complete discussion of this kinetic treatment has been fully described (Morrison et al., Adv. Enzymol. Relat. Areas Mol. Biol., 1988, 61, 201).
Exemplary inhibition data for the compounds used in the present method collected in accordance with the above-described procedure are listed in Table I.

Rhodazain, sequence (Q95PM0 entry or part of it): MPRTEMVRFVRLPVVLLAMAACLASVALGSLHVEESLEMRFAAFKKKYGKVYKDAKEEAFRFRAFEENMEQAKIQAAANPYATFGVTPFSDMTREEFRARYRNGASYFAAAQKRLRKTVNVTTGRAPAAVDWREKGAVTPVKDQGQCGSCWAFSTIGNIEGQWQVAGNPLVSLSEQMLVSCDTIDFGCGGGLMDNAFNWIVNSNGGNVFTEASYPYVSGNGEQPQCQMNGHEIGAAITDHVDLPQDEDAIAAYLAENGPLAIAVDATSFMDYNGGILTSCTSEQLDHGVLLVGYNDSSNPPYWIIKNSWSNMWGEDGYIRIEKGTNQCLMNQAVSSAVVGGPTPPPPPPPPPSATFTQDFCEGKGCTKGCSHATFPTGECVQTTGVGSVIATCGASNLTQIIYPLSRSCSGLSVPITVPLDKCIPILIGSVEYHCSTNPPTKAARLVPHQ
Falcipain 2, sequence (Q8I6U4 244-484): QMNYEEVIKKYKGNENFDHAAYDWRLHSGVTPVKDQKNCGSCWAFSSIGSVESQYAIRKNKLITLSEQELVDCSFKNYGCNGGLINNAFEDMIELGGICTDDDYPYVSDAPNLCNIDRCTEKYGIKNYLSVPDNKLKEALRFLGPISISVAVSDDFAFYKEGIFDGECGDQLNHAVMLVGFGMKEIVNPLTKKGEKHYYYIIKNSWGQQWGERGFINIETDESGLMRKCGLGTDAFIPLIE
Cruzain, sequence (P25779 123-337): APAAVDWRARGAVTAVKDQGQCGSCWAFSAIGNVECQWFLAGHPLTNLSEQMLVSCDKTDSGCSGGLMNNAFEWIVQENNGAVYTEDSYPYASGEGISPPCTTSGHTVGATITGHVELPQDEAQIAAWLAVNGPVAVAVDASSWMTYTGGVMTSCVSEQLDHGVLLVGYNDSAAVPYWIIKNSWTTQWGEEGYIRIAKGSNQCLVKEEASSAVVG

Turning to `CC(C)C[C@@H](NC(=O)c1cc2ccccc2o1)C(=O)NC1CCCN(S(=O)(=O)c2ccccn2)CC1=O` (single isomer, unassigned) [Example 21], the Ki was determined as 3.2 nM in assay [1], 3.8 nM in assay [2] and 10 nM in assay [3].
The matching figures for `CC(C)C[C@@H](NC(=O)c1ccc2[nH]ccc2c1)C(=O)NC1CCCN(S(=O)(=O)c2cccc[n+]2[O-])CC1=O` (single isomer, unassigned) [Example 64]: 2.7 nM, 4.1 nM and 6.2 nM.
On to `CC(C)CC(NC(=O)c1ccc2c(c1)OCO2)C(=O)N[C@@H]1CCCN(S(=O)(=O)c2cccc[n+]2[O-])CC1=O` (single isomer, unassigned) [Example 76], for which the Ki in assay [1] turned out to be 5.4 nM; in assay [2], 14 nM; in assay [3], 7.8 nM.
The matching figures for `CC(C)CC(NC(=O)c1ccc2c(c1)OCCCO2)C(=O)N[C@@H]1CCCN(S(=O)(=O)c2cccc[n+]2[O-])CC1=O` (single isomer, unassigned) [Example 78]: 4.6 nM, 4.4 nM and 7.1 nM.
For `CC(C)CC(NC(=O)c1nc(-c2ccccc2)oc1C(F)(F)F)C(=O)NC1CCCN(S(=O)(=O)c2ccccn2)CC1=O` (single isomer, unassigned) [Example 105] the same measures were 5.3 nM, 13 nM and 84 nM.
The matching figures for `CC(C)C[C@@H](NC(=O)c1ccc2ncccc2c1)C(=O)N[C@@H]1CCCN(S(=O)(=O)c2ccccn2)CC1=O` (single isomer, unassigned) [Example 152]: 1.6 nM, 2 nM and 3.1 nM.
As to `CC(C)C[C@@H](NC(=O)c1ccnc2ccccc12)C(=O)N[C@@H]1CCCN(S(=O)(=O)c2ccccn2)CC1=O` (single isomer, unassigned) [Example 153], the Ki in assay [1] amounted to 1.6 nM; in assay [2], 2.4 nM; in assay [3], 4.5 nM.
`CC(C)C[C@@H](NC(=O)c1ccc2ccccc2c1)C(=O)N[C@@H]1CCCN(S(=O)(=O)c2ccccn2)CC1=O` (single isomer, unassigned) [Example 155]: the Ki in assay [1] stood at 3 nM; in assay [2] it was 4.1 nM; in assay [3], 6.1 nM.
The matching figures for `CC(C)C[C@@H](NC(=O)c1cnc2ccccc2c1)C(=O)N[C@@H]1CCCN(S(=O)(=O)c2ccccn2)CC1=O` (single isomer, unassigned) [Example 156]: 2.6 nM, 4.1 nM and 6.2 nM.
For `COc1cc2cc(C(=O)N[C@H](CC(C)C)C(=O)N[C@H]3CCCN(S(=O)(=O)c4ccccn4)CC3=O)sc2cc1OC` (single isomer, unassigned) [Example 165] the same measures were 2.1 nM, 5.5 nM and 2.5 nM.
The matching figures for `COc1ccc2oc(C(=O)N[C@H](CC(C)C)C(=O)N[C@@H]3CCCN(S(=O)(=O)c4ncccc4C)CC3=O)cc2c1` (single isomer, unassigned) [Example 171]: 3.2 nM, 2.5 nM and 4.9 nM.
With `CC(C)C[C@@H](NC(=O)c1ccc2c(c1)OCO2)C(=O)N[C@@H]1CCCN(S(=O)(=O)c2ccccn2)CC1=O` (stereo in doubt) [Example 59, Benzo[1,3]dioxole-5-carboxylic acid {(S)-3-methyl-1-[3-oxo-1-(pyridine-2-sulfonyl)-azepan-4-ylcarbamoyl]-butyl}amide], the Ki in assay [1] came to 2.4 nM; in assay [2], 3.4 nM; in assay [3], 3.4 nM.
`COc1ccc2oc(C(=O)N[C@H](CC(C)C)C(=O)N[C@@H]3CCCN(S(=O)(=O)c4ncccc4C)CC3=O)cc2c1` (stereo in doubt) [Example 162, 5-Methoxy-benzofuran-2-carboxylic acid {(S)-3-methyl-1-[1-(3-methyl-pyridine-2-sulfonyl)-3-oxo-azepan-4-ylcarbamoyl]-butyl}amide]: the Ki in assay [1] was 2.5 nM; in assay [2] it was 2.7 nM; in assay [3] it was 6.1 nM.
The matching figures for `COc1cc2cc(C(=O)N[C@@H](CC(C)C)C(=O)NC3CCCN(S(=O)(=O)c4cn(C)cn4)CC3=O)oc2cc1OC` (stereo partly drawn) [Example 39, 5,6-Dimethoxy-benzofuran-2-carboxylic acid {(S)-3-methyl-1-[3-oxo-1-(1-methyl-1H-imidazole-4-sulfonyl)-azepan-4-ylcarbamoyl]-butyl}amide]: 2.2 nM, 7.4 nM and 3.9 nM.
For `CC(C)CC(NC(=O)c1cc2ccccc2o1)C(=O)N[C@H]1CCCN(S(=O)(=O)c2nccn2C)CC1=O` (stereo partly shown) [Example 40] the same measures were 2 nM, 2.3 nM and 4.5 nM.
The matching figures for `CC(C)C[C@H](NC(=O)c1cc2ccccc2o1)C(=O)N[C@H]1CCCN(S(=O)(=O)c2cn(C)cn2)CC1=O` [Example 42, Benzofuran-2-carboxylic acid {(S)-3-methyl-1-[1-(1-methyl-1H-imidazole-4-sulfonyl)-3-oxo-azepan-4-ylcarbamoyl]-butyl}amide]: 1.8 nM, 2 nM and 5.3 nM.
On to `CC(C)C[C@@H](NC(=O)c1cc2ccccc2o1)C(=O)N[C@@H]1CCCN(S(=O)(=O)c2cccc[n+]2[O-])CC1=O` [Example 45], for which the Ki amounted to 2.8 nM in assay [1], 4.1 nM in assay [2] and 5.7 nM in assay [3].
For `CC(C)C[C@@H](NC(=O)c1ccc2[nH]ccc2c1)C(=O)N[C@@H]1CCCN(S(=O)(=O)c2cccc[n+]2[O-])CC1=O` [Example 54, 1H-Indole-5-carboxylic acid {(S)-3-methyl-1-[3-oxo-1-(1-oxy-pyridine-2-sulfonyl)-azepan-4-ylcarbamoyl]-butyl}amide] the same measures were 4.1 nM, 5.2 nM and 7.8 nM.
For `COc1cccc2cc(C(=O)N[C@@H](CC(C)C)C(=O)N[C@H]3CCCN(S(=O)(=O)c4ccccc4F)CC3=O)oc12` [Example 93, 7-Methoxy-benzofuran-2-carboxylic acid-{(S)-1-[1-(2-fluoro-benzenesulfonyl)-3-oxo-azepan-4-ylcarbamoyl]-3-methyl-butyl}-amide] the same measures were 11 nM, 11 nM and 7 nM.
`[2H]C1(NC(=O)C(CC(C)C)NC(=O)c2cc3ccccc3o2)CCCN(S(=O)(=O)c2ccccn2)C([2H])([2H])C1=O` [Example 100, Benzofuran-2-carboxylic acid {(S)-3-methyl-1-[(2,2′,4-tridueterio)-3-oxo-1-(pyridine-2-sulfonyl)-azepan-4-ylcarbamoyl]-butyl}amide]: the Ki worked out at 2.5 nM in assay [1] and 6.4 nM in assay [3].
As for `CC(C)C[C@@H](NC(=O)c1ccc(-c2cccc(C(F)(F)F)c2)o1)C(=O)N[C@@H]1CCCN(S(=O)(=O)c2cccc[n+]2[O-])CC1=O` [Example 119, 5-(3-Trifluoromethyl-phenyl)-furan-2-carboxylic acid {(S)-3-methyl-1-[3-oxo-1-(1-oxy-pyridine-2-sulfonyl)-azepan-4-ylcarbamoyl]-butyl}amide], the inhibition constant Ki in assay [1] is 5.1 nM; in assay [3] it was 8.1 nM.
For the compound `COc1ccc2oc(C(=O)N[C@@H](CC(C)C)C(=O)N[C@H]3CCCN(S(=O)(=O)c4nccs4)CC3=O)cc2c1` [Example 124, 5-Methoxybenzofuran-2-carboxylic acid {(S)-3-methyl-1-[3-oxo-1-(thiazole-2-sulfonyl)-azepan-4-ylcarbamoyl]-buty}amide], the values for the Ki in assay [1], in assay [2] and in assay [3] were 2.2 nM, 2 nM and 4.9 nM, respectively.
The matching figures for `CC(C)C[C@H](NC(=O)c1cc2ccccc2s1)C(=O)N[C@H]1CCCN(S(=O)(=O)c2nccs2)CC1=O` [Example 127, Benzo[b]thiophene-2-carboxylic acid {(S)-3-methyl-1-[3-oxo-1-(thiazole-2-sulfonyl)-azepan-4-ylcarbamoyl]-butyl}amide]: 4.7 nM, 2.8 nM and 8.1 nM.

One may read the Ki as a dissociation constant, usually derived from enzyme kinetics or from competition with a known ligand.

These data come from US20030044399A1, “Method of treatment” (SmithKline Beecham Corporation, priority 1998, published 2003).
